In patent publication US11299478B2, “2-cyanopyrimidin-4-yl carbamate or urea derivative or salt thereof, and pharmaceutical composition including same” (HANLIM PHARMACEUTICAL CO., LTD., priority 2018, dated 2022):

Legend:
Format in all cases: biochemical
cathepsin K = molecular target: T1, cathepsin K (Homo sapiens, UniProt P43235); assay: Inhibitory activity assay against cathepsin K (enzyme assay); conditions: Z-Phe-Arg-AMC 10 μM, enzyme 1 nM, pH 5.5, 30 minutes
T1 sequence (P43235 115-329): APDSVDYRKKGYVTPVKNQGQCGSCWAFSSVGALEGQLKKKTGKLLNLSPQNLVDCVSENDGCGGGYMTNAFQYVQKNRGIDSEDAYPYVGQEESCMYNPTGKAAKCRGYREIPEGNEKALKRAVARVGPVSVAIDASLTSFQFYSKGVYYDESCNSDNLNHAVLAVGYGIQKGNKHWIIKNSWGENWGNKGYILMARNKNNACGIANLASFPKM
Procedure, shortened: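 IC50 by 4-parameter logistic fit of fluorescence (ex 355 nm, em 460 nm) after 30 min reaction. Compound tested at 10 final concentrations from 10.0 μM down to 0.000508 μM against 1 nM enzyme and 10 μM Z-Phe-Arg-AMC, in MES buffer pH 5.5 with DTT, EDTA, Triton X-100 and 10% DMSO.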

cathepsin B = cathepsin B (Homo sapiens, UniProt P07858); assay: Inhibitory activity assay against cathepsin B (enzyme assay); conditions: Z-Arg-Arg-AMC 40 μM, enzyme 1 nM, pH 6.0, 90 minutes
Procedure, shortened: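 Reaction run 90 min in MES buffer pH 6.0 containing DTT, EDTA, Polysorbate 20 and 10% DMSO, using 40 μM fluorogenic Z-Arg-Arg-AMC and 1 nM cathepsin B. Ten compound levels from 10.0 μM; AMC fluorescence at ex 340/em 460 nm fitted to a 4-parameter logistic for IC50.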

cathepsin L = cathepsin L (Homo sapiens, UniProt P07711); assay: Inhibitory activity assay against cathepsin L (enzyme assay); conditions: Z-Phe-Arg-AMC 2 μM, enzyme 3 nM, pH 5.5, 30 minutes
Procedure, shortened: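 IC50s came from 4-parameter logistic fits of ten concentrations (10.0 μM down to 0.000508 μM). Reaction: 30 min, 3 nM enzyme, 2 μM Z-Phe-Arg-AMC, pH 5.5 MES buffer containing DTT, EDTA, Polysorbate 20 and 10% DMSO; fluorescence read 340/460 nm.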

cathepsin S = cathepsin S (Homo sapiens, UniProt P25774); assay: Inhibitory activity assay against cathepsin S (enzyme assay); conditions: Z-Phe-Arg-AMC 70 μM, enzyme 3 nM, pH 6.5, 45 minutes
Procedure, shortened: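 Ten-point compound titration (10.0 to 0.000508 μM final) reacted 45 min with 3 nM cathepsin S and 70 μM Z-Phe-Arg-AMC in MES 50 mM pH 6.5, DTT 2.5 mM, EDTA 1.0 mM, BSA 0.001%, DMSO 10%. AMC release read at 340/460 nm; IC50 from four-parameter logistic fit.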

Chain of cathepsin L (P07711 114-333, species assumed): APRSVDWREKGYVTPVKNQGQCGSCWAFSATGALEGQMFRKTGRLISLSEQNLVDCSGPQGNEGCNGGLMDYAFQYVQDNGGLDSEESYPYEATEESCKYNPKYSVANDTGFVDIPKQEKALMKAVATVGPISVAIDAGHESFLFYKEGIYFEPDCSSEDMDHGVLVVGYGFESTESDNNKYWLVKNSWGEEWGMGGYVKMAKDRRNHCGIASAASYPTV
Chain of cathepsin S (P25774 115-331, species assumed): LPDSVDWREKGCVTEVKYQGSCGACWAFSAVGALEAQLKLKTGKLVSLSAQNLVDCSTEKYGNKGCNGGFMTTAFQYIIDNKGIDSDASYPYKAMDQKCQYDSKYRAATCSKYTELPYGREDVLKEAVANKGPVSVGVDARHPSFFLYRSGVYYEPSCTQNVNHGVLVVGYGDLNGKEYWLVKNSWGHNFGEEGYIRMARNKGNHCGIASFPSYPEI

N#Cc1nccc(C2(NC(=O)Nc3cccc4ccccc34)CCCC2)n1 [Example 74, 1-(1-(2-cyanopyrimidin-4-yl)cyclopentyl)-3-(naphthalen-1-yl)urea]
IC50 (cathepsin K): 27 nM | IC50 (cathepsin B): > 10000 nM | IC50 (cathepsin L): > 10000 nM | IC50 (cathepsin S): > 10000 nM

N#Cc1nccc(C2(NC(=O)Nc3ccc4ccccc4c3)CCCC2)n1 [Example 75, 1-(1-(2-cyanopyrimidin-4-yl)cyclopentyl)-3-(naphthalen-2-yl)urea]
IC50 (cathepsin K): 41 nM | IC50 (cathepsin B): > 10000 nM | IC50 (cathepsin L): > 10000 nM | IC50 (cathepsin S): > 10000 nM

N#Cc1nccc(C2(NC(=O)Nc3ccc4nccnc4c3)CCCC2)n1 [Example 77, 1-(1-(2-cyanopyrimidin-4-yl)cyclopentyl)-3-(quinoxalin-6-yl)urea]
IC50 (cathepsin K): 95.1 nM | IC50 (cathepsin B): > 10000 nM | IC50 (cathepsin L): > 10000 nM | IC50 (cathepsin S): > 10000 nM

N#Cc1nccc(C2(NC(=O)Nc3ccc4c(c3)OCO4)CCCC2)n1 [Example 78, 1-(benzo[d][1,3]dioxol-5-yl)-3-(1-(2-cyanopyrimidin-4-yl)cyclopentyl)urea]
IC50 (cathepsin K): 51.8 nM | IC50 (cathepsin B): > 10000 nM | IC50 (cathepsin L): > 10000 nM | IC50 (cathepsin S): > 10000 nM

N#Cc1nccc(C2(NC(=O)Nc3ccc4c(c3)CCC4)CCCC2)n1 [Example 82, 1-(1-(2-cyanopyrimidin-4-yl)cyclopentyl)-3-(2,3-dihydro-1H-inden-5-yl)urea]
IC50 (cathepsin K): 54.5 nM | IC50 (cathepsin B): 7610 nM | IC50 (cathepsin L): > 10000 nM | IC50 (cathepsin S): > 10000 nM

N#Cc1nccc(C2(NC(=O)Nc3cc(C(F)(F)F)ccc3F)CCCC2)n1 [Example 83, 1-(1-(2-cyanopyrimidin-4-yl)cyclopentyl)-3-(2-fluoro-5-(trifluoromethyl)phenyl)urea]
IC50 (cathepsin K): 17 nM | IC50 (cathepsin B): > 10000 nM | IC50 (cathepsin L): > 10000 nM | IC50 (cathepsin S): > 10000 nM

Cc1ccc(C)c(NC(=O)NC2(c3ccnc(C#N)n3)CCC(C)(C)CC2)c1 [Example 84, 1-(1-(2-cyanopyrimidin-4-yl)-4,4-dimethylcyclohexyl)-3-(2,5-dimethylphenyl)urea]
IC50 (cathepsin K): 44.3 nM | IC50 (cathepsin B): > 10000 nM | IC50 (cathepsin L): 3410 nM | IC50 (cathepsin S): 1680 nM

N#Cc1nccc(C2(NC(=O)Nc3ccc(F)c(C(F)(F)F)c3)CCOCC2)n1 [Example 85, 1-(4-(2-cyanopyrimidin-4-yl)tetrahydro-2H-pyran-4-yl)-3-(4-fluoro-3-(trifluoromethyl)phenyl)urea]
IC50 (cathepsin K): 28.2 nM | IC50 (cathepsin B): > 10000 nM | IC50 (cathepsin L): > 10000 nM | IC50 (cathepsin S): > 10000 nM

N#Cc1nccc(C2(NC(=O)Nc3ccccc3)CCCCC2)n1 [Example 86, 1-(1-(2-cyanopyrimidin-4-yl)cyclohexyl)-3-phenylurea]
IC50 (cathepsin K): 38.9 nM | IC50 (cathepsin B): > 10000 nM | IC50 (cathepsin L): 2460 nM | IC50 (cathepsin S): 7110 nM

Cc1ccc(C)c(NC(=O)NC2(c3ccnc(C#N)n3)CCCCC2)c1 [Example 87, 1-(1-(2-cyanopyrimidin-4-yl)cyclohexyl)-3-(2,5-dimethylphenyl)urea]
IC50 (cathepsin K): 3.6 nM | IC50 (cathepsin B): > 10000 nM | IC50 (cathepsin L): 898 nM | IC50 (cathepsin S): 6260 nM

N#Cc1nccc(C2(NC(=O)NCc3ccccc3)CCCCC2)n1 [Example 88, 1-benzyl-3-(1-(2-cyanopyrimidin-4-yl)cyclohexyl)urea]
IC50 (cathepsin K): 31.6 nM | IC50 (cathepsin B): > 10000 nM | IC50 (cathepsin L): 7140 nM | IC50 (cathepsin S): > 10000 nM

N#Cc1nccc(C2(NC(=O)Nc3cccc(C(F)(F)F)c3)CCCCC2)n1 [Example 89, 1-(1-(2-cyanopyrimidin-4-yl)cyclohexyl)-3-(3-(trifluoromethyl)phenyl)urea]
IC50 (cathepsin K): 3.8 nM | IC50 (cathepsin B): > 10000 nM | IC50 (cathepsin L): 6890 nM | IC50 (cathepsin S): > 10000 nM

N#Cc1nccc(C2(NC(=O)Nc3ccc(C(F)(F)F)cc3)CCCCC2)n1 [Example 90, 1-(1-(2-cyanopyrimidin-4-yl)cyclohexyl)-3-(4-(trifluoromethyl)phenyl)urea]
IC50 (cathepsin K): 68.2 nM | IC50 (cathepsin B): > 10000 nM | IC50 (cathepsin L): > 10000 nM | IC50 (cathepsin S): > 10000 nM

N#Cc1nccc(C2(NC(=O)NCc3ccccc3C(F)(F)F)CCCCC2)n1 [Example 91, 1-(1-(2-cyanopyrimidin-4-yl)cyclohexyl)-3-(2-(trifluoromethyl)benzyl)urea]
IC50 (cathepsin K): 32.2 nM | IC50 (cathepsin B): > 10000 nM | IC50 (cathepsin L): 4770 nM | IC50 (cathepsin S): > 10000 nM
